Where two headings read alike, the source gives them in different places.
Assay: Placebo controlled, dose escalation pharmacokinetic study of oral (Z)-Endoxifen capsules (serum endoxifen; incl. accumulation ratios and dose linearity)
Format: in vivo, human
Conditions: female, human, serum
Text: An objective of the study was to assess the safety and tolerability of oral (Z)-Endoxifen when administered […] orally as a capsule to healthy female volunteers. A secondary objective was to assess the pharmacokinetics of multiple doses of oral (Z)-Endoxifen in the subjects.
Generally, healthy female volunteers aged ≥18 years and ≤65 years were enrolled. 24 participants were enrolled in 3 cohorts and will be administered study drug orally. Three dose levels of orally administered (Z)-Endoxifen were investigated in 3 cohorts. In each cohort participants were randomized to receive an oral (Z)-Endoxifen or placebo in a blinded fashion. Enteric-resistant capsules used in the study were designed as delayed release capsules to resist rupture for at least 30 minutes, but typically, for about 2 hours, under gastric conditions and then open fully in intestinal fluid (DRCaps; Capsugel, a Lonza Company, USA). Enteric-resistant (Swedish Orange size Zero (0); Capsugel, USA) DRCaps capsules manually filled with 1, 2 or 4 mg of (Z)-endoxifen neat in compliance with GMP requirements were used. Placebo capsules contained microcrystalline cellulose an inert common capsule and tablet excipient.
Each cohort enrolled 8 participants, with 6 participants receiving (Z)-Endoxifen 1 mg capsules orally at 1 mg (Cohort 1), 2 mg (Cohort 2) or 4 mg (Cohort 3) doses and 2 participants receiving matching placebo capsules. In Cohort 1 (Dose Level=1 mg) two participants (sentinels) were dosed 24 hours prior to the remaining participants. One sentinel was dosed with (Z)-Endoxifen and the other with placebo. The remaining six participants in Cohort 1 were dosed as no safety concerns were identified in the sentinel participants. The non-sentinel participants in Cohort 1 were admitted to the clinical research facility at least one day later than the sentinels. There were no sentinels in Cohorts 2 and 3.
Participant engagement in this study was for a period of 56 days. These included a 28 day screening period, and a 7 day post treatment period for Pharmacokinetic (PK) sampling. There were two confinement periods, one at the beginning and one at the end of the dosing periods. Participants were confined to the clinical facility on Days-1 through to Day 2 and Days 21 and 22. If participants were to experience any clinically significant adverse events during the study, they would have been required to remain in the clinical facility for further observation at the discretion of the Principal Investigator (PI).
Healthy female volunteers were screened within 28 days prior to commencement of dosing. Participants were admitted to the clinical facility on Day-1 for up to 3 days. The first dose of (Z)-Endoxifen or placebo capsules was administered on Day 1. Following completion of all safety assessments and sampling for PK analyses, participants were discharged from the clinical facility on Day 2. The first dose on Day 1 was followed by a 6-day treatment free period (Days 2-7). Each participant returned to the clinical facility for PK blood draws and safety assessments during the treatment free period on study Days 4 and 6. On Day 8 participants commenced daily administration of (Z)-Endoxifen capsules or placebo capsules for 14 consecutive days (Days 8-21). Participants were supplied with study drug capsules and asked to self administer daily. Participants visited the clinical facility on Days 11, 14 and 17, prior to dose administration, for PK blood draws and safety assessments. On the morning of Day 21 each participant returned to the clinical facility prior to dose administration and were confined to the facility until Day 22 to allow for the collection of PK blood draws and safety assessments. The Day 21 dose was the last administration of study drug. Participants were discharged from the clinical facility on Day 22 and returned for PK blood draws and safety assessments on study Days 24, 26, and 28. […]

Compound: CC/C(=C(\c1ccc(O)cc1)c1ccc(OCCNC)cc1)c1ccccc1 [(Z)-Endoxifen, (Z)-4-(1-(4-(2-(methylamino)ethoxy)phenyl)-2-phenylbut-1-enyl) phenol]
- AUC(0-inf) (oral, 2 mg, Day 1, 2 mg, N 6, read-out: AUC0-inf, Mean): 1110 ng·h/mL
- AUC(0-inf) (oral, 2 mg, Day 1, 2 mg, N 6, read-out: AUC0-inf, Median): 1100 ng·h/mL
- AUC(0-t) (oral, 2 mg, Day 1, 2 mg, N 6, read-out: AUC24hr, GeoMean): 301 ng·h/mL
- AUC(0-t) (oral, 2 mg, Day 1, 2 mg, N 6, read-out: AUC24hr, Mean): 305 ng·h/mL
- AUC(0-t) (oral, 2 mg, Day 1, 2 mg, N 6, read-out: AUC24hr, Median): 303 ng·h/mL
- AUC(0-t) (oral, 2 mg, Day 1, 2 mg, N 6, read-out: AUCTlast, GeoMean): 862 ng·h/mL
- AUC(0-t) (oral, 2 mg, Day 1, 2 mg, N 6, read-out: AUCTlast, Mean): 889 ng·h/mL
- AUC(0-t) (oral, 2 mg, Day 1, 2 mg, N 6, read-out: AUCTlast, Median): 955 ng·h/mL
- Cmax (oral, 2 mg, Day 1, 2 mg, N 6, read-out: Cmax, GeoMean): 17.3 ng/mL
- Cmax (oral, 2 mg, Day 1, 2 mg, N 6, read-out: Cmax, Mean): 17.7 ng/mL
- Cmax (oral, 2 mg, Day 1, 2 mg, N 6, read-out: Cmax, Median): 17.5 ng/mL
- Tmax (oral, 2 mg, Day 1, 2 mg, N 6, read-out: Tmax, GeoMean): 4.19 h
- Tmax (oral, 2 mg, Day 1, 2 mg, N 6, read-out: Tmax, Mean): 4.28 h
- Tmax (oral, 2 mg, Day 1, 2 mg, N 6, read-out: Tmax, Median): 4.17 h
- Vd/F (oral, 2 mg, Day 1, 2 mg, N 6, read-out: Vz/F, GeoMean): 127 L
- Vd/F (oral, 2 mg, Day 1, 2 mg, N 6, read-out: Vz/F, Mean): 131 L
- Vd/F (oral, 2 mg, Day 1, 2 mg, N 6, read-out: Vz/F, Median): 118 L
- half-life (oral, 1-4 mg, read-out: apparent terminal half life (t½) by dose level): 42 to 53 h
- Tmax (oral, Days 1 and 21, 1-4 mg, read-out: Median Tmax by dose level): 4 to 8 h
- AUC(0-inf) (oral, dosing range of 1 mg to 4 mg, read-out: AUC0-inf): 400 to 6000 ng·h/mL
- AUC(0-inf) (po, 1 mg, Dose: 1 mg oral, Day 1, read-out: AUC(0-inf), individual subjects): 593 ng·h/mL
- AUC(0-t) (po, 1 mg/day, Day 1, 1 mg/day oral (n = 5), read-out: AUC24 hr, Arithmetic Mean): 158 ng·h/mL
- Cmax (po, 1 mg/day, Day 1, 1 mg/day oral (n = 5), read-out: Cmax, Arithmetic Mean): 9.6 ng/mL
- Tmax (po, 1 mg/day, Day 1, 1 mg/day oral (n = 5), read-out: Median Tmax): 6 h
- Tmax (po, 1 mg/day, Day 1, 1 mg/day oral (n = 5), read-out: Tmax (Range)): 2 to 8.08 h
- half-life (po, 1 mg/day, Day 1, 1 mg/day oral (n = 5), read-out: t1/2, Arithmetic Mean (converted)): 41.1 h
- AUC(0-t) (po, 1 mg/day, Day 21, 1 mg/day oral (n = 5), read-out: AUC24 hr, Arithmetic Mean): 458 ng·h/mL
- Cmax (po, 1 mg/day, Day 21, 1 mg/day oral (n = 5), read-out: Cmax, Arithmetic Mean): 24.6 ng/mL
- Tmax (po, 1 mg/day, Day 21, 1 mg/day oral (n = 5), read-out: Median Tmax): 8 h
- Tmax (po, 1 mg/day, Day 21, 1 mg/day oral (n = 5), read-out: Tmax (Range)): 4 to 6.05 h
- half-life (po, 1 mg/day, Day 21, 1 mg/day oral (n = 5), read-out: t1/2, Arithmetic Mean (converted)): 52.6 h
- AUC(0-t) (po, 2 mg, Day 21, dose 2 mg oral once daily, GeoMean, N 6, read-out: AUC24hr): 897 ng·h/mL
- Cmax (po, 2 mg, Day 21, dose 2 mg oral once daily, GeoMean, N 6, read-out: Cmax): 48.8 ng/mL
- Tmax (po, 2 mg, Day 21, dose 2 mg oral once daily, GeoMean, N 6, read-out: Tmax): 3.64 h
- half-life (po, 2 mg, Day 21, dose 2 mg oral once daily, GeoMean, N 6, read-out: apparent terminal half life (t½) (converted)): 42.8 h
- Vd/F (po, 2 mg, Day 21, dose 2 mg oral once daily, GeoMean, N 6, read-out: volume of distribution (Vd/F)): 138 L
- AUC(0-t) (po, 2 mg, Day 21, dose 2 mg oral once daily, Mean, N 6, read-out: AUC24hr): 911 ng·h/mL
- Cmax (po, 2 mg, Day 21, dose 2 mg oral once daily, Mean, N 6, read-out: Cmax): 50 ng/mL
- Tmax (po, 2 mg, Day 21, dose 2 mg oral once daily, Mean, N 6, read-out: Tmax): 4.01 h
- half-life (po, 2 mg, Day 21, dose 2 mg oral once daily, Mean, N 6, read-out: apparent terminal half life (t½) (converted)): 43.4 h
- Vd/F (po, 2 mg, Day 21, dose 2 mg oral once daily, Mean, N 6, read-out: volume of distribution (Vd/F)): 139 L
- AUC(0-t) (po, 2 mg, Day 21, dose 2 mg oral once daily, Median, N 6, read-out: AUC24hr): 910 ng·h/mL
- Cmax (po, 2 mg, Day 21, dose 2 mg oral once daily, Median, N 6, read-out: Cmax): 51 ng/mL
- Tmax (po, 2 mg, Day 21, dose 2 mg oral once daily, Median, N 6, read-out: Tmax): 4 h
- half-life (po, 2 mg, Day 21, dose 2 mg oral once daily, Median, N 6, read-out: apparent terminal half life (t½) (converted)): 45.7 h
- Vd/F (po, 2 mg, Day 21, dose 2 mg oral once daily, Median, N 6, read-out: volume of distribution (Vd/F)): 132 L
- AUC(0-inf) (po, 2 mg, Dose: 2 mg oral, Day 1, read-out: AUC(0-inf), individual subjects): 1010 ng·h/mL
- AUC(0-t) (po, 2 mg/day, Day 1, 2 mg/day oral (n = 6), read-out: AUC24 hr, Arithmetic Mean): 305 ng·h/mL
- Cmax (po, 2 mg/day, Day 1, 2 mg/day oral (n = 6), read-out: Cmax, Arithmetic Mean): 17.7 ng/mL
- Tmax (po, 2 mg/day, Day 1, 2 mg/day oral (n = 6), read-out: Median Tmax): 4.17 h
- Tmax (po, 2 mg/day, Day 1, 2 mg/day oral (n = 6), read-out: Tmax (Range)): 3 to 6 h
- half-life (po, 2 mg/day, Day 1, 2 mg/day oral (n = 6), read-out: t1/2, Arithmetic Mean (converted)): 49 h

From patent US12275684B2, “Methods for making and using endoxifen” (Atossa Therapeutics, Inc., priority 2017, dated 2025)
